From patent US12630498B2 (Genzyme Corporation, priority 2019, dated 2026)

Tests used:
[1] = target: T1, CFTR-mediated transepithelial chloride transport in primary human bronchial epithelial cells from a ΔF508 homozygous CF donor (Homo sapiens, UniProt P13569, DEL508-508); assay: TECC24 recording of CFTR-mediated transepithelial chloride transport in CF-HBE cells (AUC fold over DMSO); type: cell-based; conditions: test agent 10 μM, 48 hours incubation, AUC of forskolin-stimulated IEQ relative to DMSO
T1 construct: Primary human bronchial epithelial cells from a ΔF508 homozygous CF donor; host or cells: primary CF-HBE cells, ΔF508 homozygous donor
Description: Example 316: TECC24 AUC Fold Over DMSO @ 10 uM
The effects of a test agent on CFTR-mediated transepithelial chloride transport was measured using TECC24 recording analysis. Test agents were solubilized in DMSO. Solubilized test agents were mixed with incubation medium containing DMEM/F12, Ultroser G (2%; Crescent Chemical, catalog #67042), Hyclone Fetal Clone II (2%; GE Healthcare, catalog #SH30066.02), bovine brain extract (0.25%; Lonza, catalog #CC-4098), insulin (2.5 μg/mL), IL-13 (10 ng/mL), hydrocortisone (20 nM), transferrin (2.5 μg/mL), triiodothyronine (500 nM), ethanolamine (250 nM), epinephrine (1.5 μM), phosphoethanolamine (250 nM), and retinoic acid (10 nM). Primary human bronchial epithelial cells from a ΔF508 homozygous CF donor (CF-HBE cells; from University of North Carolina Cystic Fibrosis Tissue Procurement Center), grown on Transwell HTS 24-well cell culture inserts (Costar, catalog #3378), were exposed to test agents or controls dissolved in incubation medium. The CF-HBE cells were cultured at 36.5° C. for 48 hours before TECC24 recordings were performed in the presence or absence of test agent, a positive control or vehicle (DMSO).
Following incubation, the transwell cell culture inserts containing the test agent or control-treated CF-HBE cells were loaded onto a TECC24 apparatus (TECC v7 or MTECC v2; EP Design) to record the transepithelial voltage (VT) and resistance (TEER) using 4 AgCl electrodes per well configured in current-clamp mode. The apical and basolateral bath solutions both contained (in mM) 140 NaCl, 5 KCl, 2 CaCl2), 1 MgCl2, 10 Hepes, and 10 glucose (adjusted to pH 7.4 with NaOH). To inhibit basal Na+ absorption, the ENaC inhibitor benzamil (10 μM) was added to the bath. Then, the adenylate cyclase activator, forskolin (10 μM), was added to the bath to activate CFTR. The forskolin-stimulated Cl-transport was halted by addition of CFTR inhibitor-172 (20 μM) to the bath at the end of the experiment to confirm specificity. VT and TEER recordings were digitally acquired at routine intervals using TECC or MTECC software (EP Design). VT and TEER were transformed into equivalent transepithelial Cl-current (IEQ), and the Area Under the Curve (AUC) of the IEQ time course between forskolin and CFTR inhibitor-172 addition was generated using Excel (Microsoft). Efficacy is expressed as the ratio of the test agent AUC divided by vehicle AUC. EC50s based on AUC are generated using the non-linear regression log(agonist) vs. response function in Prism software (GraphPad) with Hill Slope fixed=1.
If a test agent increased the AUC of the forskolin-stimulated IEQ relative to vehicle in CF-HBE cells, and this increase was inhibited by CFTR inhibitor-172, then the test agent was considered a CFTR corrector.

[2] = target: T2, human Cystic Fibrosis Transmembrane Conductance Regulator (CFTR) harboring the ΔF508 mutation (Homo sapiens, UniProt P13569, DEL508-508); assay: H441 cell ΔF508-CFTR-HRP cell surface assay (Emax and EC50); type: cell-based; conditions: for Emax: NCI-H441, NA = Not active
T2 construct: expressed in transfected cells; host or cells: H441 carcinoma line (G418-selected)
Summary of the method: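 H441 and 41o- bronchial epithelial cells expressing ΔF508-CFTR with an extracellular-loop-4 HRP tag were treated with a 15-point compound series (24.5–0.001 μM) for two nights, H441 at 27° C, 41o- at 37° C with 0.0005 mg/ml doxycycline. Surface HRP luminescence read; % of maximum VX809 signal and EC50 derived.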

T1 sequence (P13569 with tags, fused parts or gaps DEL508-508): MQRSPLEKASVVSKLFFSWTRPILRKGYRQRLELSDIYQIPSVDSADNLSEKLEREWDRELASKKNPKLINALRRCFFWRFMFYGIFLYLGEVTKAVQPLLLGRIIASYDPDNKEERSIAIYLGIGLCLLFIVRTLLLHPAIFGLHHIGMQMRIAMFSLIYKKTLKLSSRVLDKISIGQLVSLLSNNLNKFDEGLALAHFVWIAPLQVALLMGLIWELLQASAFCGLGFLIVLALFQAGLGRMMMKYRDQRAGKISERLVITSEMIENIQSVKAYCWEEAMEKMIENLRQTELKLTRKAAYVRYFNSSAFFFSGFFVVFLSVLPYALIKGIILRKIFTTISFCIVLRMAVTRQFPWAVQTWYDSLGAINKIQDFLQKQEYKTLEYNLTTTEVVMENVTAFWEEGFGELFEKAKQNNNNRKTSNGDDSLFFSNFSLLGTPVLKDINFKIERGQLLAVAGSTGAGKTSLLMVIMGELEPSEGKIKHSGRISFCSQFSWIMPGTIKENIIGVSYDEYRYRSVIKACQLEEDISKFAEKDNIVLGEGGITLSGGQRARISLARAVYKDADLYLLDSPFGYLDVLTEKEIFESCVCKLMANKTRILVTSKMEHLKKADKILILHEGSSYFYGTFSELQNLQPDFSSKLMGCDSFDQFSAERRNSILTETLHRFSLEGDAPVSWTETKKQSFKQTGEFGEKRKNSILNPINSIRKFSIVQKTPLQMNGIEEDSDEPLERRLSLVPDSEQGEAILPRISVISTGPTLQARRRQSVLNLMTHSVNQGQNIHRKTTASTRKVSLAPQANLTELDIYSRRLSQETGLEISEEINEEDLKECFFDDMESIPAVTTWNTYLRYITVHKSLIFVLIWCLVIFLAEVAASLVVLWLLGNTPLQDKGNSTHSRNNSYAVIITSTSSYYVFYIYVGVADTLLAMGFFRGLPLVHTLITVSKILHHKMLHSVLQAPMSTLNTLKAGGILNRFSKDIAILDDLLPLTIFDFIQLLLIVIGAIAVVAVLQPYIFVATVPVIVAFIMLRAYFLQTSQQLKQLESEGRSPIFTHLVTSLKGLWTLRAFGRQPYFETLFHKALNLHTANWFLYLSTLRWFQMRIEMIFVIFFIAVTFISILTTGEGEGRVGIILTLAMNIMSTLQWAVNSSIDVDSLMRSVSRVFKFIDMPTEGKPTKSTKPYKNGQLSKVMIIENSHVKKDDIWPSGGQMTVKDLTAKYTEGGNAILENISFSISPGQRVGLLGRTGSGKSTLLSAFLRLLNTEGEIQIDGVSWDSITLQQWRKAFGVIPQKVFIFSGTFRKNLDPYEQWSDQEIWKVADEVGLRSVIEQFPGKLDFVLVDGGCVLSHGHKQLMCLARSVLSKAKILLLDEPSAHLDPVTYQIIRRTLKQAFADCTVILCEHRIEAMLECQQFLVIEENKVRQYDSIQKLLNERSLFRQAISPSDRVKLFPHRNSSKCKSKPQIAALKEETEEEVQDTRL
T2 sequence (P13569 with tags, fused parts or gaps DEL508-508): as above

SMILES | TECC24 AUC fold over DMSO @10 μM [1] | EC50 [2] [nM] | Emax [2] [%]
CCC(C)(C)[C@H](NC(=O)c1ccc2ccc(C)cc2c1OCC1CCCCC1)C(=O)O [Example 281, (S)-2-(1-(cyclohexylmethoxy)-7-methyl-2-naphthamido)-3,3-dimethylpentanoic Acid] | A (“A” refers to AUC @10 uM >6) | 700 | 246
O=C(N[C@H](C(=O)O)[C@H](O)c1ccccc1)c1ccc2ccccc2c1OCc1ccc(C(F)(F)F)cc1 [Example 129, (2S,3R)-3-hydroxy-3-phenyl-2-(1-((4-(trifluoromethyl)benzyl)oxy)-2-naphthamido)propanoic Acid] | C (“C” refers to AUC @10 uM <4) | 12000 | 29.4
O=C(N[C@H](C(=O)O)C1CCCCC1)c1ccc2ccccc2c1OCc1ccc(C(F)(F)F)cc1 [Example 128, (S)-2-cyclohexyl-2-(1-((4-(trifluoromethyl)benzyl)oxy)-2-naphthamido)acetic Acid] | A (“A” refers to AUC @10 uM >6) | 500 | 158
CCC(C)(C)[C@H](NC(=O)c1ccc2ccc(C(F)(F)F)cc2c1OCc1ccc(C(F)(F)F)cc1)C(=O)O [Example 295, (S)-3,3-dimethyl-2-(7-(trifluoromethyl)-1-((4-(trifluoromethyl)benzyl)oxy)-2-naphthamido)pentanoic Acid] | A (“A” refers to AUC @10 uM >6) | 100 | 229
C[C@@H](OCc1ccccc1)C(NC(=O)c1ccc2ccccc2c1OCC1CCCCC1)C(=O)O (stereo partly drawn) [Example 150, (3R)-3-(benzyloxy)-2-(1-(cyclohexylmethoxy)-2-naphthamido)butanoic Acid] | C (“C” refers to AUC @10 uM <4) | 10900 | 82.5
CC1([C@H](NC(=O)c2ccc3ccc(C(F)(F)F)cc3c2OCc2ccc(C(F)(F)F)cc2)C(=O)O)CCCC1 [Example 301, (S)-2-(1-methylcyclopentyl)-2-(7-(trifluoromethyl)-1-((4-(trifluoromethyl)benzyl)oxy)-2-naphthamido)acetic Acid] | A (“A” refers to AUC @10 uM >6) | 100 | 217
CC(C)(C)[C@H](NC(=O)c1ccc2ccc(Br)cc2c1OCc1ccc(OC(F)(F)F)cc1)C(=O)O [Example 247, (2S)-2-[[7-bromo-1-[[4-(trifluoromethoxy)phenyl]methoxy]naphthalene-2-carbonyl]amino]-3,3-dimethyl-butanoic Acid] | A (“A” refers to AUC @10 uM >6) | 100 | 224
CC(C)(C)[C@H](NC(=O)c1ccc2ccc(C#N)cc2c1OCc1ccc(C(F)(F)F)cc1)C(=O)O [Example 248, (2S)-2-[[7-cyano-1-[[4-(trifluoromethyl)phenyl]methoxy]naphthalene-2-carbonyl]amino]-3,3-dimethyl-butanoic Acid] | A (“A” refers to AUC @10 uM >6) | 1500 | 206
C#CC(C)(C)C(NC(=O)c1ccc2ccccc2c1OCc1ccc(SC(F)(F)F)cc1)C(=O)O (stereo not shown) [Example 227, 3,3-dimethyl-2-[[1-[[4-(trifluoromethylsulfanyl)phenyl]methoxy]naphthalene-2-carbonyl]amino]pent-4-ynoic Acid] | C (“C” refers to AUC @10 uM <4) | 1300 | 160
CC(C)(C)[C@@H](NC(=O)c1ccc2ccc(Cl)cc2c1OCc1ccc(C(F)(F)F)cc1)C(=O)O [Example 262, (2R)-2-[[7-chloro-1-[[4-(trifluoromethyl)phenyl]methoxy]naphthalene-2-carbonyl]amino]-3,3-dimethyl-butanoic Acid] | A (“A” refers to AUC @10 uM >6) | 1100 | 132
CC(C)(C)[C@H](NC(=O)c1cc(F)c2ccccc2c1OCc1ccc(C(F)(F)F)cc1)C(=O)O [Example 64, (S)-2-(4-fluoro-1-((4-(trifluoromethyl)benzyl)oxy)-2-naphthamido)-3,3-dimethylbutanoic Acid] | C (“C” refers to AUC @10 uM <4) | 600 | 106
CCCC(C)(C)[C@H](NC(=O)c1ccc2ccc(C(F)F)cc2c1OCc1ccc(C(F)(F)F)cc1)C(=O)O [Example 246, (2S)-2-[[7-(difluoromethyl)-1-[[4-(trifluoromethyl)phenyl]methoxy]naphthalene-2-carbonyl]amino]-3,3-dimethylhexanoic Acid] | A (“A” refers to AUC @10 uM >6) | 100 | 442
CCC(C)(C)[C@H](NC(=O)c1ccc2ccc(C(F)F)cc2c1OCc1ccc(C(F)(F)F)cc1)C(=O)O [Example 242, (2S)-2-[[7-(difluoromethyl)-1-[[4-(trifluoromethyl)phenyl]methoxy]naphthalene-2-carbonyl]amino]-3,3-dimethyl-pentanoic Acid] | A (“A” refers to AUC @10 uM >6) | 100 | 368
COc1ccc2ccc(C(=O)N[C@H](C(=O)O)C(C)(C)C)c(OCc3ccc(C(F)(F)F)cc3)c2c1 [Example 308, (S)-2-(7-methoxy-1-((4-(trifluoromethyl)benzyl)oxy)-2-naphthamido)-3,3-dimethylbutanoic Acid] | A (“A” refers to AUC @10 uM >6) | 500 | 408
CC(C)(C)C[C@H](NC(=O)c1ccc2ccccc2c1OCc1ccc(SC(F)(F)F)cc1)C(=O)O [Example 115, (S)-4,4-dimethyl-2-(1-((4-((trifluoromethyl)thio)benzyl)oxy)-2-naphthamido)pentanoic Acid] | C (“C” refers to AUC @10 uM <4) | 1100 | 84
CC(C)(C)C[C@H](NC(=O)c1ccc2cc(F)ccc2c1OCc1ccc(C(F)(F)F)cc1)C(=O)O [Example 198, (S)-2-(6-fluoro-1-((4-(trifluoromethyl)benzyl)oxy)-2-naphthamido)-4,4-dimethylpentanoic Acid] | A (“A” refers to AUC @10 uM >6) | 1500 | 94.4
CC(C)(C)[C@H](NC(=O)c1ccc2ccccc2c1OCc1ccc(C(F)(F)F)c(F)c1)C(=O)O [Example 25, (S)-2-(1-((3-fluoro-4-(trifluoromethyl)benzyl)oxy)-2-naphthamido)-3,3-dimethylbutanoic Acid] | C (“C” refers to AUC @10 uM <4) | 500 | 287
CC1([C@H](NC(=O)c2ccc3ccc(Cl)cc3c2OCc2ccc(C(F)(F)F)cc2)C(=O)O)CCC1 [Example 300, (S)-2-(7-chloro-1-((4-(trifluoromethyl)benzyl)oxy)-2-naphthamido)-2-(1-methylcyclobutyl)acetic Acid] | A (“A” refers to AUC @10 uM >6) | 200 | 232
CC1(C(NC(=O)c2ccc3ccccc3c2OCc2ccc(C(F)(F)F)cc2)C(=O)O)CC1 (stereo not shown) [Example 56, 2-(1-methylcyclopropyl)-2-(1-((4-(trifluoromethyl)benzyl)oxy)-2-naphthamido)acetic Acid] | C (“C” refers to AUC @10 uM <4) | 1700 | 127
CC(C)(c1ccccc1)[C@H](NC(=O)c1ccc2cc(F)ccc2c1OCc1ccc(SC(F)(F)F)cc1)C(=O)O [Example 10, (S)-2-(6-fluoro-1-((4-((trifluoromethyl)thio)benzyl)oxy)-2-naphthamido)-3-methyl-3-phenylbutanoic Acid] | C (“C” refers to AUC @10 uM <4) | – | –
